The values that follow come from PMC3113527 (Journal of agricultural and food chemistry, 2011).

Experiment [1] deals with T1, Lipase from porcine pancreas (PL) (Sus scrofa, UniProt P00591).
T1 sequence (P00591 1-450): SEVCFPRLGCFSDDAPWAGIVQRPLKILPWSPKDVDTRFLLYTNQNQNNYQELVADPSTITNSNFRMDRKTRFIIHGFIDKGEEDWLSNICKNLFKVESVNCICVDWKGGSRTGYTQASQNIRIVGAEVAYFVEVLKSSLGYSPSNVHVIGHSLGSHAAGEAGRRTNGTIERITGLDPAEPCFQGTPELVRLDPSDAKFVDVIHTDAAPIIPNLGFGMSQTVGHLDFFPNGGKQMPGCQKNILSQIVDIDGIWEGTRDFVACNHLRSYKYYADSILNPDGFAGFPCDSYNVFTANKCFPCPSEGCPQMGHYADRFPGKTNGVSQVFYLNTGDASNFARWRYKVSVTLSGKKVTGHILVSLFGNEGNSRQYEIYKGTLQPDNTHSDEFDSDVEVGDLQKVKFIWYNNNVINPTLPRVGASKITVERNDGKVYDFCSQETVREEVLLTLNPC
The experiment is described as follows: Pancreatic lipase inhibition assay in vitro. The experiment is classed as biochemical. To be noted: read-out: Inhibition of PL.

Experiment [2] deals with PLA2. Conditions: at 2 mM; cited from earlier work.
Experiment [3] deals with secreted phospholipase A2 (PLA2) (Apis mellifera, UniProt P00630). Briefly: biochemical. To be noted: read-out: Inhibition of PLA2.

What is called inhibition is the drop in the measured response relative to a control, in per cent.

Chain of secreted phospholipase A2 (PLA2) (P00630 34-167 limits assumed): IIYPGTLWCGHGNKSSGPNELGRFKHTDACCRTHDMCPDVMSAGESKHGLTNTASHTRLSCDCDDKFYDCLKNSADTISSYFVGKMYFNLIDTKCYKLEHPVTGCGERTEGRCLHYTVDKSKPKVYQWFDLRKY

On to `CCCCCCCCCCC[C@@H](C[C@@H]1OC(=O)[C@H]1CCCCCC)OC(=O)[C@H](CC(C)C)NC=O` [Orlistat], for which the inhibition at 10 µM in experiment [1] was determined as 72%.

For `O=C(O[C@@H]1Cc2c(O)cc(O)cc2O[C@@H]1c1cc(O)c(O)c(O)c1)c1cc(O)c(O)c(O)c1` [EGCG], the “Inhibition of PLA2 in vitro” value in experiment [2] was 64.9%.

Take `Oc1cc(O)c2c(c1)O[C@H](c1ccc(O)c(O)c1)[C@H](O)C2` [EC, (−)-epicatechin]: the inhibition at 100 µM in experiment [3] is 4.5%. For the same molecule, the inhibition at 20 µM in experiment [1] came out at 15%.
